According to patent US20180000719A1, “A SKIN LIGHTENING COMPOSITION COMPRISING NIACINAMIDE AND ILOMASTAT” (Conopco, Inc., d/b/a UNILEVER, priority 2014, published 2018):

Tests used:
Tyrosinase enzyme = target: T1, Tyrosinase enzyme (Homo sapiens, UniProt P14679); assay: In vitro human tyrosinase activity assay (melanocytic lysate); format: biochemical
T1 construct: Primary human melanocytic lysate was used as a source of Tyrosinase enzyme; endogenous in cells; host or cells: primary human melanocytes (lysate)
T1 sequence (P14679 19-529): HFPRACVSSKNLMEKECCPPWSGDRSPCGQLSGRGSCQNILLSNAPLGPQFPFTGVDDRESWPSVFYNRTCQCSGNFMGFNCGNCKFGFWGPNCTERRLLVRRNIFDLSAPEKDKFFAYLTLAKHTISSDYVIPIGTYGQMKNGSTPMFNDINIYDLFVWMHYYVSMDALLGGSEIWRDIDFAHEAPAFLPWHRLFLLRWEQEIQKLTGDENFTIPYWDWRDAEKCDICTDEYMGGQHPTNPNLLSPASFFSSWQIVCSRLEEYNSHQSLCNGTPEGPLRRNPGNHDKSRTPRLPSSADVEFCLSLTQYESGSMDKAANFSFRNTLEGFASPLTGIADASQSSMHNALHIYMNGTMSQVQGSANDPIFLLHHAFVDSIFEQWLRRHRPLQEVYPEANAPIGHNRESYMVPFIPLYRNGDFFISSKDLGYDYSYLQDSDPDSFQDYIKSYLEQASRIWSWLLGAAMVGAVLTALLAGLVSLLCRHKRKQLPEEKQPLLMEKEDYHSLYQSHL
Protocol: (v) In Vitro Human Tyrosinase Activity Assay: • Primary human melanocytic lysate was used as a source of Tyrosinase enzyme. Human melanocytic lysate and test actives (at different concentrations) were incubated together for 15 mins, prior to addition of Tyrosine/DOPA substrate mix. Assay plate was then incubated at 37° C. for ˜14-16 hrs. Optical Density was measured at 405 nm and % Inhibition calculated.

[1] = test system: primary human melanocytes; assay: cells
Protocol: (i) Cell Cultures: • Neonatal foreskin primary human melanocytes were procured from Life Technologies, USA. Cells were grown in Medium 254 supplemented with human melanocyte growth supplement-2 and maintained at 37° C. in a humidified incubator with 5% CO2 atmosphere. The maintenance and sub culturing of cells were carried out as per the manufacturer's instructions. Cells between passages 3-6 were used for experimentation.
(ii) Active Addition: • Cells were seeded at a density of 5×10^4/well in a 24 well plate in Melanocyte Growth Media (MGM) and incubated for 24 hrs at 37° C./5% CO2. Actives were added to cells along with relevant controls.
(iii) Cell Viability Assay • Briefly, spent media was removed and cells washed once with 0.2 ml of 1×PBS-Ca—Mg solution. Fresh 1 μM calcein-AM in PBS buffer was added to each well. Plates were incubated for 30 min. at 37° C. in a CO2 incubator. Calcein fluorescence was then measured (excitation at 490 nm and emission at 520 nm) in TECAN M1000 plate reader.
(iv) Melanin Content Assay: • After Calcein measurements, cultures were rinsed with PBS (1×) and lysed for 1 hour at 60° C. in a shaker incubator using NaOH/DMSO mix. Melanin content was measured in a Tecan plate reader (405 nm filter), corrected for cell numbers and represented as % inhibition.

[2] = Homo sapiens, Melanocyte, 72 h, read-out: Average % inhibition in cellular melanin

Structure (SMILES)	inhibition at 10 µM (Tyrosinase enzyme; 0.01 mM Niacinamide) [%]	inhibition at 100 µM (Tyrosinase enzyme; 0.1 mM Niacinamide) [%]	inhibition at 1000 µM (Tyrosinase enzyme; 1 mM Niacinamide) [%]	inhibition at 10000 µM (Tyrosinase enzyme; 10 mM Niacinamide) [%]	inhibition at 50000 µM (Tyrosinase enzyme; 50 mM Niacinamide) [%]	inhibition at 1000 µM [1, 2] [%]	inhibition at 10000 µM [1, 2] [%]	inhibition at 1 µM [1, 2] [%]	inhibition at 10 µM [1, 2] [%]	reduction of melanin content in primary human melanocytes (in words) ([1]; galardin by itself at 1 μM)	reduction of melanin content in primary human melanocytes (in words) ([1]; galardin by itself at 10 μM)
NC(=O)c1cccnc1 [Niacinamide, pyridine-3-carboxamide]	2	2	4	-8	-20	-7	16	–	–	–	–
CNC(=O)[C@H](Cc1c[nH]c2ccccc12)NC(=O)[C@@H](CC(=O)NO)CC(C)C [Galardin, (R)—N4-Hydroxy-N1-[(S)-2-(1H-indol-3-yl)-1-methylcarbamoyl-ethyl]-2-isobutyl-succinamide]	–	–	–	–	–	–	–	6	17	no reduction	modest reduction
